{"source": "paper PMC11394712", "about": "(Foods, 2024)", "key": {"[1]": {"biological_target": "α-amylase", "conditions": "ref 39 (Zheng et al.); cited from earlier work"}, "[2]": {"biological_target": "α-glucosidase", "conditions": "ref 39 (Zheng et al.); cited from earlier work"}, "[3]": {"biological_target": "T1, α-Amylase from porcine pancreas (Sus scrofa, UniProt P00690)", "T1 construct": "purchased Sigma-Aldrich (Shanghai, China); host or cells: porcine pancreas", "T1 sequence (P00690 16-511)": "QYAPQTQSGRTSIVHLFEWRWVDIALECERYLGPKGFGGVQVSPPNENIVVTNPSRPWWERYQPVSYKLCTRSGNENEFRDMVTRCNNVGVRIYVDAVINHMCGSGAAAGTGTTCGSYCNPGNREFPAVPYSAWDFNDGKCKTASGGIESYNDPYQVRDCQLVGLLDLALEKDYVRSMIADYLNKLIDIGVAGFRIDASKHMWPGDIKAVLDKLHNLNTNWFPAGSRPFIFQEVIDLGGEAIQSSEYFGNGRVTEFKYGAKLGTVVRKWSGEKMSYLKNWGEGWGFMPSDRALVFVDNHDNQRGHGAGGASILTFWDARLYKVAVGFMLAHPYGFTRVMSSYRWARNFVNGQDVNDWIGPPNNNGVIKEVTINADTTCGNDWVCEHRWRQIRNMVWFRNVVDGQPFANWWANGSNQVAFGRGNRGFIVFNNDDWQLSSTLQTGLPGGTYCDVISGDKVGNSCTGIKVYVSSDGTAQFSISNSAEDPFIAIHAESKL", "experiment": "Fluorescence quenching, binding and thermodynamic analysis, α-amylase", "conditions": "for pKd: KD dissociation constant; for pKd / KQ static quenching constant / n binding sites / ΔG free energy change / ΔH enthalpy change / ΔS entropy change / KA apparent quenching rate constant: α-amylase", "protocol": "For fluorescence spectroscopic studies, we followed the protocol in the study of Yu et al.. […] Fluorescence quenching parameters were calculated using the following equations:(8) Fa=Fm⋅e^(Aex+Aem)/2 where Fm denotes the measured fluorescence data; Fa represents the adjusted fluorescence data; and Aex and Aem denote the absorbance at the excitation and emission wavelengths, respectively.\nStern–Volmer dynamic impact quenching equation:(9) F0/F=1+KAτ0[Q]\nBinding and thermodynamic analyses were used for elucidating the mechanisms of enzyme inhibition, including the inhibition of fluorophores by quenchers. […] (13) lg(F0−F/F)=lgKC+nlg[Q] where F0, F, and [Q] are identical to those in Equation (9). KC is the binding constant (L/mol), and n denotes the average number of binding sites. (14) lnKQ2/KQ1=ΔH/R(1/T1−1/T2) (15) ΔG=−RTlnK=ΔH−TΔS"}, "[4]": {"biological_target": "T1, α-Amylase from porcine pancreas", "experiment": "Inhibition rate of α-amylase (glucose assay kit, 510 nm)", "type": "biochemical", "procedure": "For α-amylase, the method of Qin et al. [22] was used with slight modifications (the enzymatic reaction time was different). […] A 5 mL aliquot of the above solution was taken to undergo 10 min of incubation at 37 °C, following by the addition of 5 mL of starch solution (20 mg/mL) that was prepared and kept at 37 °C. Following 15 min of incubation at 37 °C, the reaction solution was removed, and a glucose assay kit was employed for assaying the glucose produced after starch hydrolysis through measuring the changes in the absorbance at 510 nm. […] IC50 was calculated using SPSS 25.0 (IBM) nonlinear regression fitting. (4) Inhibition ratio (%) = 1−ODsample−ODsample blank/ODenzyme solution−ODbuffer solution×100 where ODsample, ODsample blank, and ODenzyme solution represent the absorbance of the solution containing both the sample and the enzyme, the sample solution, and the enzyme solution, respectively. ODbuffer solution is the absorbance of the buffer solution."}, "[5]": {"test_system": "porcine pancreatic α-amylase and amyloglucosidase (rice starch digestion)", "experiment": "In vitro digestion of genistein–starch mixed system (RDS, SDS, RS contents)", "type": "biochemical, porcine; Aspergillus niger", "protocol": "A particular volume of mixed enzyme solution was prepared in which the specific activities of porcine pancreatic α-amylase and amyloglucosidase were 150 U/mL and 15 U/mL, respectively, and kept at 37 °C. […] This mixed system was added to 25 mL of mixed enzyme solution to receive incubation at 37 °C and 160 r/min in a shaking water bath. Aliquots from the reaction solution were removed at 0, 20, and 120 min, followed by being assayed using a glucose assay kit (Megazyme). Below is the calculation equation of the rapidly digestible starch (RDS), slowly digestible starch (SDS), and resistant starch (RS) contents:(1) RDS(%)=(G20−G0)×0.9/TS×100 (2) SDS(%)=(G120−G20)×0.9/TS×100 (3) RS(%)=TS−RDS−SDS/TS×100\nIn the above equations, G0 represents the content of free glucose within starch; G20 and G120 are the quantities of glucose generated by the mixed enzyme solution after incubation for 20 and 120 min, respectively; TS represents the total starch content in the sample, mg; and 0.9 is the glucose conversion coefficient."}, "[6]": {"biological_target": "T1, α-Amylase from porcine pancreas", "experiment": "Reversibility and enzyme inhibition kinetics, α-amylase (Lineweaver–Burk)", "type": "biochemical", "protocol": "The protocol of Dong et al. was followed with minor modifications (the substrate concentration was different). […] The assay mixture received 10 min of incubation at 37 °C. The mixture underwent 15 min of incubation after being added with starch solution (5 mL, 20 mg/mL), followed by the determination of the absorbance change. […] The mixture of the above solution with 2 mL of pNPG solution (25.0 mmol/L) underwent 15 min of incubation, followed by the measurement of its absorbance at 405 nm.\nThe method in the study of Jiang et al. was modified slightly in this study (the concentration of the inhibitor was different). […] Thereafter, the assay mixture added with 5 mL of 10, 20, 40, 50, and 100 mg/mL of starch solution underwent 15 min of incubation at 37 °C. The assay was performed using a glucose assay kit, together with the identification of the absorbance change at 510 nm.\nThe assay mix was incubated further for 15 min at 37 °C. The experimenters terminated the reaction by adding 6 mL of sodium carbonate solution (0.2 mol/L). The absorbance change of the solution was monitored colorimetrically at 405 nm. […] The equations below were adopted for calculating Km, KIC, and KIN, which, respectively, represented the Michaelis constant, competitive inhibition constant, and non-competitive inhibition constant, in mg/mL [28].\nLineweaver–Burk:(5) 1/V=Km/Vmax⋅1/[S]+1/Vmax"}, "[7]": {"conditions": "addition of genistein (0.4 mg/mL, 10%) vs starch alone"}, "[8]": {"conditions": "genistein 0.4 mg/mL (10.0 mg per 100 mg rice starch), 37 °C"}}, "note": "pIC50, pKd: −log10 of the molar value."}
{"smiles": "COc1cc(/C=C/C(=O)O)ccc1O", "note": "[ferulic acid]", "values": [{"measurement": "IC50 α-amylase", "setting": "[1]", "value": 622, "unit": "µg/mL"}, {"measurement": "IC50 α-glucosidase", "setting": "[2]", "value": 866, "unit": "µg/mL"}]}
{"smiles": "O=c1c(-c2ccc(O)cc2)coc2cc(O)cc(O)c12", "note": "[genistein, Genistein]", "values": [{"measurement": "type of fluorescence quenching of α-amylase", "setting": "[3]; 25, 31, 37 °C", "value": "static quenching"}, {"measurement": "pKd", "setting": "[3]; 25 °C", "value": 3.12}, {"measurement": "pKd", "setting": "[3]; 31 °C", "value": 3.77}, {"measurement": "pKd", "setting": "[3]; 37 °C", "value": 3.96}, {"measurement": "KQ static quenching constant", "setting": "[3]; 25 °C", "value": 540, "unit": "L/mol"}, {"measurement": "n binding sites", "setting": "[3]; 25 °C", "value": 1.19}, {"measurement": "ΔG free energy change", "setting": "[3]; 25 °C", "value": -3.415, "unit": "kcal/mol"}, {"measurement": "ΔH enthalpy change", "setting": "[3]; 25 °C", "value": -0.11, "unit": "kcal/mol"}, {"measurement": "ΔS entropy change", "setting": "[3]; 25 °C", "value": 50.65, "unit": "J·mol^−1·K^−1"}, {"measurement": "KA apparent quenching rate constant", "setting": "[3]; 31 °C", "value": "5.32e+11", "unit": "M⁻¹ s⁻¹"}, {"measurement": "KQ static quenching constant", "setting": "[3]; 31 °C", "value": 530, "unit": "L/mol"}, {"measurement": "n binding sites", "setting": "[3]; 31 °C", "value": 0.97}, {"measurement": "ΔG free energy change", "setting": "[3]; 31 °C", "value": -3.717, "unit": "kcal/mol"}, {"measurement": "ΔH enthalpy change", "setting": "[3]; 31 °C", "value": -1.44, "unit": "kcal/mol"}, {"measurement": "ΔS entropy change", "setting": "[3]; 31 °C", "value": 31.97, "unit": "J·mol^−1·K^−1"}, {"measurement": "KA apparent quenching rate constant", "setting": "[3]; 37 °C", "value": "4.84e+11", "unit": "M⁻¹ s⁻¹"}, {"measurement": "KQ static quenching constant", "setting": "[3]; 37 °C", "value": 480, "unit": "L/mol"}, {"measurement": "n binding sites", "setting": "[3]; 37 °C", "value": 0.77}, {"measurement": "ΔG free energy change", "setting": "[3]; 37 °C", "value": -3.81, "unit": "kcal/mol"}, {"measurement": "ΔH enthalpy change", "setting": "[3]; 37 °C", "value": -0.504, "unit": "kcal/mol"}, {"measurement": "ΔS entropy change", "setting": "[3]; 37 °C", "value": 44.59, "unit": "J·mol^−1·K^−1"}, {"measurement": "pIC50", "setting": "[4]", "value": 2.59}, {"measurement": "increase of RS content", "setting": "[5]; [7]", "value": 7.18, "unit": "%"}, {"measurement": "increase of SDS content", "setting": "[5]; [7]", "value": 30.34, "unit": "%"}, {"measurement": "reduction of RDS content in starch", "setting": "[5]; [7]", "value": 37.52, "unit": "%"}, {"measurement": "RDS content of the mixed system", "setting": "[5]; [8]", "value": 20.63, "unit": "%"}, {"measurement": "RS content of the mixed system", "setting": "[5]; [8]", "value": 9.14, "unit": "%"}, {"measurement": "SDS content of the mixed system", "setting": "[5]; [8]", "value": 70.23, "unit": "%"}, {"measurement": "type of inhibition of α-amylase", "setting": "[6]; genistein 0, 1, 2 mg/mL", "value": "reversible and non-competitive"}, {"measurement": "Ki", "setting": "[6]; read-out: KIN (non-competitive inhibition constant), α-amylase (converted)", "value": 50500, "unit": "µM"}]}
